Assay results reported in patent US20050260219A1, “Carboxypeptidases B from anopheles gambiae. compositions comprising them, vaccine applications and use as therapeutical targets” (INSTITUT PASTEUR, priority 2004, published 2005).
Residues, ends and D or L forms follow the SMILES beside them. *: point of attachment. Bz = O=C(c1ccccc1)*

Key:
[1] = target: T1, recombinant CPBAg1 (Anopheles gambiae, UniProt Q702G3); assay: Effect of inhibitors on CPBAg1 activity (Hip-Arg as substrate); format: biochemical; conditions: for Activity (%): relative to control without inhibitor
T1 sequence (Q702G3 20-423): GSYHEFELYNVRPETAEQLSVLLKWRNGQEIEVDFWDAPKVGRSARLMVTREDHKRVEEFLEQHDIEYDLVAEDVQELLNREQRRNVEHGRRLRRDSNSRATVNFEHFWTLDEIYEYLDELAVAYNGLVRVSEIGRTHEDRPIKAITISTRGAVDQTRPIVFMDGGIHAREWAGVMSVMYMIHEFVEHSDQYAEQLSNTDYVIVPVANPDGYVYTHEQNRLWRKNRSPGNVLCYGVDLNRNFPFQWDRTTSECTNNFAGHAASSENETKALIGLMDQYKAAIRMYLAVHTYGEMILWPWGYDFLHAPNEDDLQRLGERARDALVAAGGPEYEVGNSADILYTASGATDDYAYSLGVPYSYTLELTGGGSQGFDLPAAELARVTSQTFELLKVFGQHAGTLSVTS
Experimental: (§1) Carboxypeptidase activity was determined using the synthetic di-peptide substrates Hippuryl-Arginine (Hip-Arg), Hippuryl-Lysine (Hip-Lys) as carboxypeptidase B substrates and Hippuryl-Phenylalanine (Hip-Phe) as carboxypeptidase A substrate. All reagents were purchased from Sigma. Activities were assayed in 20 μl E buffer (100 mM NaCl/50 mM Hepes/100 μM ZnCl2 pH 7.2) containing 1 mM Hip-Arg, Hip-Lys or Hip-Phe. The reaction was initiated by adding an equal volume of His-tagged CPBAg1 (5 ng/μl in E buffer), incubated at 25° C. for 10-40 min, and stopped by the addition of 20 μl Ninhydrin reagent (Sigma, Lyon, France). The rate of the reaction was measured by estimating the amount of released amino acids using the ninhydrin procedure (60). One unit of enzyme activity was defined as μmol of amino acids released/min.
Inhibitory effects of the chelating agent 1,10-phenantroline (Sigma, Lyon, France), and of the arginine analogue GEMSA (Guanidinoethylmercaptosuccinic acid, Fluka) on CPBAg1 activity were assayed as follows: different concentrations ([…]-1 mM) of inhibitors were preincubated at 25° C. for 30 min with the recombinant protein in E buffer before addition of Hip-Arg. Activity was measured as described above and was expressed as the percentage of activity relative to controls performed in absence of inhibitor.
Accordingly, CPBAg1 activity was inhibited by the active site-directed inhibitor GEMSA, which is an arginine analogue (Table 2). Activity of the purified recombinant CPBAg1 produced in the baculovirus was assayed after incubation with the zinc-carboxypeptidase inhibitor 1,10-phenantroline and the active site-directed inhibitor GEMSA, using Hyp-Arg as substrate. 100% activity corresponds to 1.1 and 0.8 unit/mg for 1,10-phenanatroline and GEMSA experiments, respectively.

[2] = target: T1, recombinant CPBAg1; assay: Carboxypeptidase activity assay on recombinant CPBAg1 with di-peptide substrates; format: biochemical; conditions: for Enzyme activity: purified recombinant CPBAg1 from baculovirus, 1 mM substrate, 1 unit cleaves 1 μmol product/min
Experimental: as §1
Estimation of Km and kcat was carried out after assays over a 500-fold range of Hip-Arg concentration (0.02-10 mM). Each concentration was assayed in triplicate. The kinetic parameters were derived from iterative non-linear least square fits of the Michaelis-Menten equation using the experimental data (61). Confidence limits for the fitted values were determined by 100 Monte Carlo iterations using the experimental standard deviations on individual measurements.
Activity of the purified recombinant CPBAg1 produced in baculovirus was assayed against the carboxypeptidase B di-peptide substrates Hippuryl-Arginine (Hip-Arg) and Hippuryl-Lysine (Hip-Lys) and the carboxypeptidase A di-peptide substrate Hippuryl-Phenylalanine (Hip-Phe). 1 unit cleaves 1 μmol product/min.

[3] = tested on: P. falciparum development in An. gambiae; assay: Effect of CPB substrates, free L-arginine and free L-lysine added to infected blood meal on P. falciparum development in An. gambiae; format: in vivo, Plasmodium falciparum; conditions: day 7 post feeding; for % Infected mosquitoes (number of dissected mosquitoes): pooled infections; for Mean number of oocysts (range): per positive midgut
Experimental: Asymptomatic village people (Senegal) or schoolchildren aged ≦10 years old (Cameroon) were mass-screened to detect parasite carriers as previously described (12). All participants were volunteers and the consent of the children's parents was obtained. The experimental protocols were approved by the Cameroonian and the Senegalese National Ethics Committees. Infections and control experiments were performed with the blood from gametocyte carrier volunteers and with the blood from parasite-free donors. Venous blood (10 ml) was collected in a heparin coated and pre-warmed tube, centrifuged for 5 minutes, 5,000 rpm, at 37° C. and the serum of the patient immediatly replaced with a prewarmed AB serum collected from donors not living in a malaria endemic country. For each experiment, batches of 60 nulliparous female mosquitoes (5 days old) starved from sugar for 24 h were fed for 10 minutes, using the artificial membrane feeding technique (24). Fully engorged females were maintained at the insectarium until dissection. For each experiment a control batch of mosquitoes was used to determine the rate and intensity of infection by oocyst detection on day 7 post feeding. These experiments were performed with a control providing an infection rate close to or above 50%. As described below these basic procedures for infecting An. gambiae with P. falciparum were modified to answer specific issues.
Mosquito infections were performed with the blood from volunteers harboring a low gametocytaemia, as described above, except that 10 μl of L-arginine (Sigma), L-lysine (Sigma), Hippuryl-Lysine (Sigma) or Hippuryl-Arginine (Sigma) at 10, 1, 0.1 and 0.01 mM in TrisHCl 50 mM pH 7.2 were added to 500 μl of P. falciparum infected blood just before mosquito feeding. As a control 10 μl of TrisHCl 50 mM pH 7.2 was added to the P. falciparum infected blood. Triplicate experiments using the blood of three different gametocyte carriers were performed except for L-lysine where only two experiments could be performed. Rate and intensity of infection were scored on day 7 after blood feeding by detection of oocysts on the mosquito midgut wall.
For the data presented in Table 4 (below), An. gambiae were fed on P. falciparum infected blood supplemented with CPB substrates: Hippuryl-Arginine or Hippuryl-Lysine. Proportion of infected mosquitoes and oocyst counts per positive midgut were determined on day 7 post feeding. For each substrate and concentration tested, data from three independent infections were pooled. […] The infected blood harboured few gametocytes resulting in a low infection rate in the control and thereby allowing the detection of the effect of carboxypeptidase substrates.
For the data presented in Table 5 (below), An. gambiae were fed on P. falciparum infected blood supplemented with L-arginine or L-lysine at three different concentrations. Proportion of infected mosquitoes and oocyst counts per positive midgut were determined on day 7 post feeding. Data were pooled from three independent infections for L-arginine experiments, and from two independent infections for L-lysine experiments.

Compound | Enzyme activity [2] [unit/mg] | % Infected mosquitoes (number of dissected mosquitoes) ([3]; 100 μM) | Mean number of oocysts (range) ([3]; 100 μM) | % Infected mosquitoes (number of dissected mosquitoes) ([3]; 1 mM) | Mean number of oocysts (range) ([3]; 1 mM) | further results
N=C(N)NCCSC(CC(=O)O)C(=O)O (stereo not drawn) [GEMSA, Guanidinoethylmercaptosuccinic acid] |  |  |  |  |  | activity at 0.1 µM [1]: 96 ± 2%; activity at 10 µM [1]: 41%; activity at 100 µM [1]: 20 ± 2%; activity at 1000 µM [1]: 7 ± 11%
c1cnc2c(c1)ccc1cccnc12 [1,10-phenantroline] |  |  |  |  |  | Activity (%) ([1]; inhibitor 0.1 μM): 96 ± 2%; Activity (%) ([1]; inhibitor 10 μM): 87 ± 8%; Activity (%) ([1]; inhibitor 100 μM): 35 ± 5%; Activity (%) ([1]; inhibitor 1000 μM): 24 ± 5%
N=C(N)NCCC[C@H](NC(=O)CNC(=O)c1ccccc1)C(=O)O [Hippuryl-Arginine] (Bz-Gly-Arg-OH) | 0.83 ± 0.01 | 40.9 (88) % | 2.1 (1-7) | 28 (50) % | 2.1 (1-8) | activity against Hip-Arg relative to Hip-Lys ([2]; ratio of enzyme activities of Table 1): approximately 3.5 times; % Infected mosquitoes (number of dissected mosquitoes) ([3]; 10 μM): 26.3 (80) %; Mean number of oocysts (range) ([3]; 10 μM): 2.3 (1-10)
NCCCC[C@H](N)C(=O)O [L-lysine] |  | 42.1 (38) % | 4.9 (1-15) | 30.5 (36) % | 8.3 (1-44) | % Infected mosquitoes (number of dissected mosquitoes) ([3]; 10 μM): 62.9 (35) %; Mean number of oocysts (range) ([3]; 10 μM): 8.2 (1-18)
O=C(CNC(=O)c1ccccc1)N[C@@H](Cc1ccccc1)C(=O)O [Hip-Phe, Hippuryl-Phenylalanine] (Bz-Gly-Phe-OH) | 0 |  |  |  |  | 
N=C(N)NCCC[C@H](N)C(=O)O [L-arginine] |  | 38.4 (86) % | 3.2 (1-13) | 34.4 (64) % | 5.3 (1-26) | % Infected mosquitoes (number of dissected mosquitoes) ([3]; 10 mM): 55.2 (58) %; Mean number of oocysts (range) ([3]; 10 mM): 5.2 (1-31)
NCCCC[C@H](NC(=O)CNC(=O)c1ccccc1)C(=O)O [Hippuryl-Lysine] (Bz-Gly-Lys-OH) | 0.24 ± 0.02 | 41.1 (90) % | 2.4 (1-6) | 46.7 (92) % | 2.5 (1-12) | % Infected mosquitoes (number of dissected mosquitoes) ([3]; 10 mM): 23.8 (80) %; Mean number of oocysts (range) ([3]; 10 mM): 2.1 (1-6)
